# Test results from US7193079B1 (Board of Trustees of Michigan State University, priority 2003, dated 2007).
# pIC50: −log10 of the molar value.
# Experiments:
# NF-κB-DNA binding = test: EMSA for NF-κB-DNA binding in nuclear extracts of PMA/PHA-activated Jurkat cells; type: cell-based, human; conditions: for Count per mm^2 NF-κB bands / Inhibition of DNA-binding (relative to activated control): EMSA; for Count per mm^2 NF-κB bands: activated control 105.55; for Inhibition of DNA-binding (relative to activated control): PMA-activated Jurkat cells
# Procedure: Human Jurkat leukemia T-cells (clone E6-1; ATCC No. […] The Jurkat cells (1×10^6 cells/mL) are subsequently treated with various concentrations of the compounds in DMSO for 30 min. at 37° C. and 5% CO2 followed by PMA (50 ng/mL) and PHA ([…]) stimulation for an additional 30 minutes. The cells were harvested by centrifugation, washed in ice cold PBS and the nuclear extracts were prepared as previously described (Dignam et al., Nucl. Acids Res. 11: 1475-1489 (1983)). The protein concentration of the extracts was determined according to the Method of Bradford (1976) with BioRad reagents. Nuclear extracts were incubated for 20 minutes at room temperature with a double stranded Cy3 labeled NF-κB consensus oligonucleotide, [NT] ID NO:1). The binding mixture (25 μL) contained 10 mM HEPES-NaOH pH 7.9, 4 mM Tris-HCL, pH 7.9, 6.0 mM KCl, 1 mM EDTA, 1 mM DTT, 10% glycerol, 0.3 mg/mL bovine serum albumin, and 1 μg of poly (dI:dC). The binding mixtures (10 μg of nuclear extract protein) were incubated for 20 minutes at room temperature with 0.16 pmol of Cy3 labeled oligonucleotide. The mixture was loaded on a 4% polyacrylamide gel prepared in 1× TRIS borate/EDTA buffer and was electrophoresed at 200 V for 20 minutes. After electrophoresis the gel was analyzed using a phosphorimager (BIORAD FX PLUS, Biorad Laboratories, Inc., Hercules, Calif.) for detection of NF-κB-DNA binding.
# IL-2 production = test: Inhibition of IL-2 production measured by competitive EIA in PMA/PHA-activated Jurkat T cells; type: cell-based, human; conditions: for pIC50: PMA/PHA-activated Jurkat T cells, EIA, means of two experiments, standard deviation in parentheses
# Procedure: (§1) Exposure of human Jurkat leukemia T-cells to phorbol myristate acetate (PMA/PHA) and THP-1 cells to lipopolysaccharide (LPS), activates NF-κB mediated gene transcription of several pro-inflammatory cytokines, including IL-2, IL-6, IL-8 and TNF-α (Baldwin, Ann. Rev. Immunol. 14: 649–683 (1996); Grilli et al., Int. Rev. Cytol. 143: 1–62 (1993)). […] The inhibition of IL-2 was evaluated in Jurkat cells after PMA/PHA activation (Mahon and O'Neill, J. Biol. Chem. 270: 28557–28564 (1995); Lindgren et al., Molec. Immunol. 38V 267–277 (2001)). The inhibition of TNF-α was evaluated in THP-1 cells after LPS activation (Aikawa et al., Inflamm. Res. 51: 188–194 (2002)). […] After 24 hours, the cell free supernatant fractions were collected and subjected to EIA for the quantification of total IL-2 production.
# To each well of a flat bottomed 96 well culture plate 0.2 mL 1×10^6 Jurkat E6-1 cells/mL were added. Each sample was then treated in duplicate with the compounds in DMSO at either 10 μM, 1 μM, 0.1 μM or 10 ηM and allowed to incubate for thirty minutes at 37° C., 5% CO2. Cell free supernatant fractions were collected from stimulated cultures incubated for 24 hr at 37° C., 5% CO2. Cultures were stimulated with phytohemagglutinin (PHA, Sigma-Aldrich, St. Louis, Mo.) at 1 μg/mL; and phorbol myristate acetate (PMA, Sigma-Aldrich, St. Louis, Mo.) at 50 ng/mL. The concentration of IL-2 in each sample was then measured using a competitive enzyme immunoassay (Neogen Corporation, Lansing, Mich.) according to the manufacturer's protocol. Known IL-2 concentrations were plotted and fit a 4 parameter logistic curve. Unknown concentrations were then extrapolated from the standard curve.
# TNF-α production = test: Inhibition of TNF-α production measured by competitive EIA in LPS stimulated THP-1 cells; type: cell-based, human; conditions: for pIC50: EIA, 3 hr incubation, means of two experiments, standard deviation in parentheses
# Procedure: as §1
# The assay measured the ability of the compounds to inhibit TNF-α production in LPS stimulated THP-1 cells (Aikawa et al., Inflamm. Res. 51V 188–194 (2002)).
# THP-1 cells are grown in RPMI-1640 Media (Gibco-BRL, Rockville, Md.) supplemented with 5% fetal bovine serum, penicillin (614 ηg/mL), streptomycin (10 μg/mL) and HEPES buffer, pH 7.2 at 37° C., 5% CO2. To each well of a flat bottomed 96 well culture plate 0.2 mL 1×10^6 THP-1 cells/mL were added. Each sample was then treated in duplicate with the compounds in DMSO at either 10 μM, 1 μM, 0.1 μM or 10 ηM and allowed to incubate for thirty minutes at 37° C., 5% CO2. Cell free supernatant fractions were collected from stimulated cultures incubated for 3 hr at 37° C., 5% CO2. Cultures were stimulated with LPS (Sigma-Aldrich, St. Louis, Mo.) at 1 μg/mL. The concentration of TNF-α in each sample was then measured using a competitive enzyme immunoassay (Neogen Corporation, Lansing, Mich.) according to the manufacturer's protocol. To make a standard curve, known TNF-α concentrations were plotted and fitted to a 4 parameter logistic curve. Unknown concentrations were then extrapolated from the standard curve.
# CEM leukemia cells = test: Inhibition of cell growth in CEM leukemia cells (trypan blue counting); type: cell-based; conditions: 48 hour, means of two experiments, standard deviation in parentheses
# Procedure: Cells were treated at different concentrations ranging from 10 ηM to 5 μM concentrations over a 48 hour time period.
# CEM cells (CCRF-CEM; ATCC No. CCL-119, American Type Culture Collection, Manassas, Va.) were grown in RPMI-1640 Media (Gibco-BRL, Rockville, Md.) supplemented with 10% Fetal Bovine Serum, penicillin (614 r1 g/mL), streptomycin (10 μg/mL) and HEPES buffer, pH 7.2 at 37° C., 5% CO2. DMSO was used as the vector for all drugs and added in the control experiments. Cell cultures were then treated with 10 μM, 1 μM, 0.1 μM or 10 ηM of the drug in duplicate and allowed to incubate at 37° C., 5% CO2. Cells were stained with 4% trypan blue solution in PBS, and counted under the microscope (Thomas Scientific, Fisher Scientific) in duplicate. This was repeated for Oh, 2 h, 6 h, 12 h, 24 h, and 48 h. The data points obtained were then plotted and a point-to-point curve was drawn to determine the effect of the drug on the cells.
# CK1δ (h) = target: T1, CK1δ (h) (Homo sapiens, UniProt P48730); test: Upstate Kinase Profiler in vitro kinase assay, CK1δ; type: biochemical; conditions: 10 μM ATP
# T1 construct: purchased Upstate, UK (Kinase Profiler service)
# T1 sequence (P48730 whole entry): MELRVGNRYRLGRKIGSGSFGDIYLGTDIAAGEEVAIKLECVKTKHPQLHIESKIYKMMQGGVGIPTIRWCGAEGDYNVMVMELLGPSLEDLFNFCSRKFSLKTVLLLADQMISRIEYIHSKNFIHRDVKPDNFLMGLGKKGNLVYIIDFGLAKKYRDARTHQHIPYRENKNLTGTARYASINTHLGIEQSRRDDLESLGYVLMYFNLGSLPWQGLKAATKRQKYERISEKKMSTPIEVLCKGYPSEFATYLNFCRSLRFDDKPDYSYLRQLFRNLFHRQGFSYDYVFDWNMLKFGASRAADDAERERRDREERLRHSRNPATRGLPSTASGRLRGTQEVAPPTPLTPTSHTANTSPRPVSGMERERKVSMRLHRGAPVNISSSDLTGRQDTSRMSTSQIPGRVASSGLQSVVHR
# Procedure: (§2) The potent inhibitory activity of the indoloazepines against checkpoint kinases Chk1 and Chk2 was determined. In vitro kinase Assay: Compound 2 was tested in vitro against the kinases indicated by Upstate, UK using a Kinase Profiler Assay according to the manufacturer's protocol. Briefly, in a final volume of 25 μl, the kinase was incubated with the desired buffer and the required polypeptide substrate, in presence of 10 mM magnesium acetate and γ-^33P-ATP (10 μM). After incubation for 40 minutes at room temperature, the reaction was stopped by the addition of 3% H3PO4 (5 μl). A 10 μl of the reaction was then spotted on a P30 filtermat and washed 3× in 75 mM H3PO4 and finally in methanol. Samples were then dried and signals counted on a scintillation counter. […] The results are shown in FIGS. 8 and 9 for CHK1 and CHK2.
# GSK-3β = GSK-3β (Homo sapiens, UniProt P49841); test: Inhibition of GSK-3β (method of Meijer et al.); type: biochemical
# GSK-3β, sequence (P49841 whole entry, species assumed): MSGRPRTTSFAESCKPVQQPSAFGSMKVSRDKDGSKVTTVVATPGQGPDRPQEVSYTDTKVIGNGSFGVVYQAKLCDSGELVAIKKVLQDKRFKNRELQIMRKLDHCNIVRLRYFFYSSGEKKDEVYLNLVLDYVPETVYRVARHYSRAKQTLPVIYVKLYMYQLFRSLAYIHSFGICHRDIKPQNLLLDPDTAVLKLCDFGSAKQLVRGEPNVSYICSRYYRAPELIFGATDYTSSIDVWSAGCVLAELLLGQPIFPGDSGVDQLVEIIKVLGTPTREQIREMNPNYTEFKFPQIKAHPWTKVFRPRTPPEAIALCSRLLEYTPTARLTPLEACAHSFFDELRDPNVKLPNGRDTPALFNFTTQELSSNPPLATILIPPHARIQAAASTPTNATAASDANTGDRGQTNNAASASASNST
# PKCβII (h) = target: T2, PKCβII (h) (Homo sapiens, UniProt P05771); test: Upstate Kinase Profiler in vitro kinase assay, PKCβII; type: biochemical; conditions: 10 μM ATP
# T2 construct: purchased Upstate, UK (Kinase Profiler service)
# T2 sequence (P05771 1-673 isoform P05771-2): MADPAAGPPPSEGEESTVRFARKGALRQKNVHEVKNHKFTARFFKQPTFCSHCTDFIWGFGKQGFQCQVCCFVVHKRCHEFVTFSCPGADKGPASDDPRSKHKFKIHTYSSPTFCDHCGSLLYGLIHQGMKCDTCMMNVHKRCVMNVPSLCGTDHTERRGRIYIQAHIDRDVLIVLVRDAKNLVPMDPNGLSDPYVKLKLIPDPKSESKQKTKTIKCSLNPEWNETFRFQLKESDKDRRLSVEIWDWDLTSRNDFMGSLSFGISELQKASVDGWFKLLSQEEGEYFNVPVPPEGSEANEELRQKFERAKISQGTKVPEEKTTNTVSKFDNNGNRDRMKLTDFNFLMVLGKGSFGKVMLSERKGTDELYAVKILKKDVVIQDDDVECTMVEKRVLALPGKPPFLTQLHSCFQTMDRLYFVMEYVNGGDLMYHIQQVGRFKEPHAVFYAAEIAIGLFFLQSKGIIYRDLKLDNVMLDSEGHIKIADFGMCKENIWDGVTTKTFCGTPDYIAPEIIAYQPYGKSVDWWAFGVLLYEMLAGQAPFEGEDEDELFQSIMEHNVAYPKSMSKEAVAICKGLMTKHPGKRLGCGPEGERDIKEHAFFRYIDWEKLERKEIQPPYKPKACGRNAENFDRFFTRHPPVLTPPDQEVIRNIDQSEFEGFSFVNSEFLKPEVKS
# Procedure: as §2
# CK2 (h) = target: T3, CK2 (h) (Homo sapiens, UniProt P68400); test: Upstate Kinase Profiler in vitro kinase assay, CK2; type: biochemical; conditions: 10 μM ATP
# T3 construct: purchased Upstate, UK (Kinase Profiler service)
# T3 sequence (P68400 whole entry): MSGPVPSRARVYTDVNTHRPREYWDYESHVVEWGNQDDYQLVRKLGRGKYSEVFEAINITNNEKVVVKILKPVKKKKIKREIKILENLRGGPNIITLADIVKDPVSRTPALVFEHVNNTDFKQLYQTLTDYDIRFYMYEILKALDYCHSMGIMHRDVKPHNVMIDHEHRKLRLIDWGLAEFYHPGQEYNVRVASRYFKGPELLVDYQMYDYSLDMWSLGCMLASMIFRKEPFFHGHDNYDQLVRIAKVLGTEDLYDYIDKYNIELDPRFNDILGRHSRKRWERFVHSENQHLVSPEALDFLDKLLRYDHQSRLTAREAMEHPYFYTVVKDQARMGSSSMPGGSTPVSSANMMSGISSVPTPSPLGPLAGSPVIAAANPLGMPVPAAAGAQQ
# T3 sequence (P67870 whole entry partner): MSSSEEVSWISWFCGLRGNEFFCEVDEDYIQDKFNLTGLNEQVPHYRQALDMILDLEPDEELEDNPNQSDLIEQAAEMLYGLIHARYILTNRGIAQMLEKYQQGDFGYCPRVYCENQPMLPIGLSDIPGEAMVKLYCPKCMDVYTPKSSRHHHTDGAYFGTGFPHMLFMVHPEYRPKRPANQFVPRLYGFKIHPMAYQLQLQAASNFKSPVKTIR
# Procedure: as §2
# CHK1 [1] = target: T4, CHK1 (Homo sapiens, UniProt O14757); test: Upstate Kinase Profiler in vitro kinase assay, CHK1; type: biochemical; conditions: 10 μM ATP
# T4 sequence (O14757 1-476): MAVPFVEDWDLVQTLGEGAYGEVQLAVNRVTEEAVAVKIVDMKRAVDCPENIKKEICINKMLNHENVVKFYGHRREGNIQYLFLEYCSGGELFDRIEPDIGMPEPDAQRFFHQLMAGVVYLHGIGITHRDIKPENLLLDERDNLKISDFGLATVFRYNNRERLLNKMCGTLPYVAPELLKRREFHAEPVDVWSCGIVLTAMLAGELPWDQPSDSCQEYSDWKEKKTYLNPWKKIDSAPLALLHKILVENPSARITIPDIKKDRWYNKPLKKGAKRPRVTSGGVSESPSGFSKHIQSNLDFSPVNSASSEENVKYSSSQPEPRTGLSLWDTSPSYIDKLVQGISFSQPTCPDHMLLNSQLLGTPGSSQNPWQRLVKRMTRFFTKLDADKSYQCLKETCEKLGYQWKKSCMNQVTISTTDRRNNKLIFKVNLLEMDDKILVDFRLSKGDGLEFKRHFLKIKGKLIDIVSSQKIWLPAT
# Procedure: as §2, with “In” for “The potent inhibitory activity of the indoloazepines against checkpoint kinases Chk1 and Chk2 was determined. In”
# PKCα (h) = target: T5, PKCα (h) (Homo sapiens, UniProt P17252); test: Upstate Kinase Profiler in vitro kinase assay, PKCα; type: biochemical; conditions: 10 μM ATP
# T5 construct: purchased Upstate, UK (Kinase Profiler service)
# Procedure: as §2
# CDK1 = test: Inhibition of CDK1 (method of Meijer et al.); type: biochemical
# Description: The inhibitory activity of compound 3 was less pronounced.
# CHK2 = target: T6, CHK2 (Homo sapiens, UniProt O96017); test: Upstate Kinase Profiler in vitro kinase assay, CHK2; type: biochemical; conditions: 10 μM ATP
# T6 construct: purchased Upstate, UK (Kinase Profiler service)
# T6 sequence (O96017 whole entry): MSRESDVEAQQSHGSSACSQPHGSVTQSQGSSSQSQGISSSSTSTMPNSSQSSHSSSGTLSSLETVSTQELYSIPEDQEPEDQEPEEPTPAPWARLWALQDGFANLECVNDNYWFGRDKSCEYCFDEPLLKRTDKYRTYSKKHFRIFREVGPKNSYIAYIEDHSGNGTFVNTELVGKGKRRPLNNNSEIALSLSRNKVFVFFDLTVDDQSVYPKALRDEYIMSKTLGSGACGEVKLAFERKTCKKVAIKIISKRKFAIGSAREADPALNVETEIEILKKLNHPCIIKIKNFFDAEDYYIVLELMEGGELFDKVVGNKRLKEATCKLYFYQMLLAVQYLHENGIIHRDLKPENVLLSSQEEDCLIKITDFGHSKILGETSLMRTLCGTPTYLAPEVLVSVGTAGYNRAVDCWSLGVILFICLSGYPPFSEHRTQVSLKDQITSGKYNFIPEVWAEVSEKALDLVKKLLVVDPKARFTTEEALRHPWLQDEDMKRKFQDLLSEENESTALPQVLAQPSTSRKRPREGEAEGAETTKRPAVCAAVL
# Procedure: as §2, with “In” for “The potent inhibitory activity of the indoloazepines against checkpoint kinases Chk1 and Chk2 was determined. In”
# MEK1 (h) = target: T7, MEK1 (h) (Homo sapiens, UniProt Q02750); test: Upstate Kinase Profiler in vitro kinase assay, MEK1; type: biochemical; conditions: 10 μM ATP
# T7 construct: purchased Upstate, UK (Kinase Profiler service)
# T7 sequence (Q02750 whole entry): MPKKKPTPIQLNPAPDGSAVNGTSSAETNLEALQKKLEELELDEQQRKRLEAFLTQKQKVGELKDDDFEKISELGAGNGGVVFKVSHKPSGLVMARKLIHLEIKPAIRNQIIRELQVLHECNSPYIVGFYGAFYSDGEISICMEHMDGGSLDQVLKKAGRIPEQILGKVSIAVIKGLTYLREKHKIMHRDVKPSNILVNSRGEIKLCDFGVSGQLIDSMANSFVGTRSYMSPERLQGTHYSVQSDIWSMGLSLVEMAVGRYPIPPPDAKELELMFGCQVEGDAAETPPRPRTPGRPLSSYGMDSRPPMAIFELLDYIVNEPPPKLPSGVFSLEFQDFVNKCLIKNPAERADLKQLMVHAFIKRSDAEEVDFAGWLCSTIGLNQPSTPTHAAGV
# Procedure: as §2
# CHK1 [2] = target: T4, CHK1; conditions: natural products, general statement; cited from earlier work
smiles,measurement,setting,value
"NC1=NC(=O)/C(=C2\CCNC(=O)c3[nH]c(Br)cc32)N1 [Hymenialdisine 1, hymenialdisine, reference compound]",Count per mm^2 NF-κB bands,NF-κB-DNA binding; 1.0 μM,102.14 Count per mm^2
same,Count per mm^2 NF-κB bands,NF-κB-DNA binding; 5.0 μM,57.06 Count per mm^2
same,pIC50,"IL-2 production; Homo sapiens, Jurkat, 24 h",5.62
same,pIC50,IL-2 production; 24 hr,5.62
same,pIC50,TNF-α production,5.87
same,pIC50,"TNF-α production; Homo sapiens, THP-1, 3 h",5.85
same,GI50,CEM leukemia cells,1610 nM
"S=C(S)N1CCCC1 [PDTC, pyrrolidinedithiocarbamate, reference compound]",Inhibition of DNA-binding (relative to activated control),NF-κB-DNA binding; 1.0 μM,30%
same,Count per mm^2 NF-κB bands,NF-κB-DNA binding; 1.0 μM,73.48 Count per mm^2
same,Inhibition of DNA-binding (relative to activated control),NF-κB-DNA binding; 5.0 μM,51%
same,Count per mm^2 NF-κB bands,NF-κB-DNA binding; 5.0 μM,51.68 Count per mm^2
same,pIC50,"IL-2 production; Homo sapiens, 24 hr",5.29
same,pIC50,TNF-α production; Homo sapiens,5.21
"NC1=N/C(=C2/CCNC(=O)c3[nH]c4ccccc4c32)C(=O)N1 [Compound 2, 5-(2-amino-5-oxo-1,5-dihydro-imidazol-4-ylidene)-3,4,5,10-tetrahydro-2H-azepino[3,4-b]indol-1-one]",pIC50,CK1δ (h),5.87
same,pIC50,GSK-3β,6.82
same,pIC50,PKCβII (h),5.47
same,pIC50,"IL-2 production; Homo sapiens, Jurkat, 24 h",5.46
same,pIC50,IL-2 production; 24 hr,5.45
same,pIC50,CK2 (h),< 5.00
same,pIC50,TNF-α production,5.09
same,pIC50,"TNF-α production; Homo sapiens, THP-1, 3 h",5.09
same,pIC50,CHK1 [1],6.63
same,pIC50,PKCα (h),5.60
same,pIC50,CDK1,6.40
same,pIC50,CHK2,8.10
same,pIC50,MEK1 (h),7.05
same,GI50,CEM leukemia cells,1730 nM
"Cn1c2c(c3ccccc31)C(=C1N=C(N)NC1=O)CCNC2=O [Compound 3, 5-(2-amino-5-oxo-1,5-dihydro-imidazol-4-ylidene)-10-methyl-3,4,5,10-tetrahydro-2H-azepino[3,4-b]indol-1-one]",pIC50,GSK-3β,< 5.00
same,Inhibition of DNA-binding (relative to activated control),NF-κB-DNA binding; 1.0 μM,0%
same,Count per mm^2 NF-κB bands,NF-κB-DNA binding; 1.0 μM,118.82 Count per mm^2
same,Inhibition of DNA-binding (relative to activated control),NF-κB-DNA binding; 5.0 μM,0%
same,Count per mm^2 NF-κB bands,NF-κB-DNA binding; 5.0 μM,121.76 Count per mm^2
same,Inhibition of NF-κB-DNA binding (in words),NF-κB-DNA binding; measured up to concentrations of 5 μM,did not appear to substantially inhibit DNA binding
same,pIC50,"IL-2 production; Homo sapiens, 24 hr",< 5.00
same,Inhibition of IL-2 production (in words),"IL-2 production; Jurkat cells, measured up to 10 μM",no significant inhibition of IL-2 production
same,pIC50,TNF-α production; Homo sapiens,< 5.00
same,Inhibition of TNF-α production (in words),TNF-α production; tested up to 10 μM,did not have any significant activity
same,pIC50,CDK1,< 5.00
same,melting point,,> 260 °C
same,GI50,CEM leukemia cells,14300 nM
NC1=N/C(=C2/CCNC(=O)c3[nH]ccc32)C(=O)N1 [debromohymenialdisine],Inhibition of checkpoint kinase CHK1 (in words),CHK1 [2],low micromolar concentrations
